Where two headings read alike, the source gives them in different places.
Columns and labels:
[1] = tested on: TNF-α synthesis of THP-1 cells; assay: LPS-induced TNF-α production in PMA-differentiated THP-1 cells (FLISA); format: cell-based, human; details: THP-1, LPS
Method: (§1) The ability to inhibit TNF-α production was analyzed in THP-1 cells, a human acute monocytic leukemia cell line that is widely used to assess monocyte functions. In order to induce maturation, THP-1 cells were plated at 1×10^6 cells/ml and pretreated with 5 nM PMA for two days. Differentiated THP-1 cells were pretreated with various concentrations of NPI-1302a-3 or its analogs for 1 hour, followed by a 4 hour incubation with 1 μg of LPS (Sigma, St. Louse, Mo.). The P38 inhibitor (10 μM, SB 203580; Sigma, St. Louis, Mo.) was used as a positive control. Supernatants were collected and stored at −80° C. until assayed for TNF-α activity. A resazurin assay was performed for each analog to evaluate the effects on cell metabolism and viability.
To detect the presence of human TNFα, fluorescent linked immunosorbent assay or FLISA was developed and optimized. 100 μl of beads (6 μm, Spherotech) coated with goat anit-mouse IgG (1 mg/ml, R and D Systems) were mixed with 4 μl of biotin-anti-hTNFα mouse IgG (0.1 mg/ml, R and D Systems) and 2 μl of FMAT Blue-streptavidin (0.1 mg/ml, Applied Biosystems). 50 μl of the mixtures was combined with 50 μl of the supernatant isolated from treated THP-1 cells and added to the black wall FLISA plates (Applied Biosystems) and incubated overnight. The plates were scanned at factory set PMT setting, and the values were plotted and analyzed by Applied Biosystems software.

THP-1 cells = assay: Resazurin (alamarBlue) cell viability assay in differentiated THP-1 cells; format: cell-based, human; details: footnote marks: * mild, ** marked reduction in viability, in % (unit assumed)
Method: as §1
A preparation of the dye resazurin, commercially-available as alamarBlue™ (Biosource International Inc.; 820 Flynn Road, Camarillo, Calif.), was used for the cytotoxicity assays described herein. The assays and experiments described herein were conducted in substantially the same manner as described in the scientific literature, for example, in Magnani, E and Bettini, E., “Resazurin detection of energy metabolism changes in serum-starved PC12 cells and of neuroprotective agent effect,” Brain Res Protoc., Jul. 5, 2000(3):266-72 and in Nociari M. M., Shalev A., Benias P., and Russo C. J, “A novel one-step, highly sensitive fluorometric assay to evaluate cell-mediated cytotoxicity,” Immunol.Methods 213, 157-167 (1998), see also U.S. Pat. No. 5,501,959, entitled “Antibiotic and Cytotoxic Drug Susceptibility Assays using Resazurin and Poising Agents,” the entire specification of which is incorporated herein by reference.

[2] = tested on: iNOS (inducible nitric oxide synthase); details: cited from earlier work
COX-2 (cyclooxygenase-2) = details: cited from earlier work
IL-6 = details: same conditions; cited from earlier work
mice = details: cited from earlier work
IFN-γ (interferon-gamma) = details: same conditions; cited from earlier work
rat = details: cited from earlier work
IL-1 production = details: approximately 0.1 to approximately 1.0 microgram/ml for 48 hours; cited from earlier work
IL-6 synthesis = assay: SAC-induced IL-6 synthesis, RAW 264.7 macrophage cells; format: cell-based, Murine
Method: (§2) Murine macrophage cells RAW 264.7 (1×10^6/ml) were pretreated for 30-60 minutes with varying doses of the synthetic compound of Formula (I), the synthetic compound of formula (I) and a panel of analogs (diluted in 0.5% DMSO) prior to stimulation with various agents such as lipopolysaccharide (LPS) or a gram positive agent like heat-killed Staph aureus (SAC). Supernatants collected over a 72-hour period will be assayed for the levels of TNF-α, IL-1, IL-6, IL-10, IL-12 and other cytokines either by elisa or bioassay. Additional studies to evaluate the effects of the synthetic compound of Formulae (I), (II), (IIA) and (IIB) on cytokine signaling pathways such as, for example, Caspase-activity (Nr-1, Nr.3), transcription factors such as NF-kB, MAP-kinase activity (p38, ERK and JNK) will also be performed.

cirrhosis = details: mice; cited from earlier work
silicosis = details: mice; cited from earlier work
TNF-α production = details: approximately 0.1 to approximately 1.0 microgram/ml for 48 hours; cited from earlier work
TNF-α synthesis [3] = assay: Inhibition of LPS-induced TNF-α synthesis, RAW 264.7 macrophage cells; format: cell-based, Murine; details: for TNF-α: Table 7, LPS alone 88
Method: as §2

TNF-α synthesis [4] = assay: Inhibition of SAC-induced TNF-α synthesis, RAW 264.7 macrophage cells; format: cell-based, Murine; details: SAC alone 375, unstimulated 5
Method: as §2

LPS/D-Gal administration = assay: Mortality after LPS/D-Gal administration; format: in vivo; details: i.p., TTL3 45 minutes prior to LPS
IL-1 synthesis = assay: Inhibition of SAC-induced IL-1 synthesis, RAW 264.7 macrophage cells; format: cell-based, Murine; details: for IL-1α: Table 6, SAC-induced, SAC alone 650, unstimulated 0
Method: as §2

C=CC1(C)CCC=C2C1CCC1C(C)(CNCCN)CCCC21C (racemic) [CC-3-13 ra]
Percent TNF-α Inhibition ([1]; 100 ng/ml): 10%
Percent TNF-α Inhibition ([1]; 1 ug/ml): 50%
Percent TNF-α Inhibition ([1]; 10 ug/ml): 95%
Cell Viability (THP-1 cells; 100 ng/ml): 95*
Cell Viability (THP-1 cells; 1 ug/ml): 75**
Cell Viability (THP-1 cells; 10 ug/ml): 20**

C=CC1(C)CCC=C2C1CCC1C(C)(CCNCCN)CCCC21C (racemic) [CC-3-15 ra]
Percent TNF-α Inhibition ([1]; 1 ug/ml): 25%
Percent TNF-α Inhibition ([1]; 10 ug/ml): 65%
Cell Viability (THP-1 cells; 1 ug/ml): 100
Cell Viability (THP-1 cells; 10 ug/ml): 100

C=CC1(C)CCC=C2C1CCC1C(C)(C=O)CCCC21C (centres unmarked) [CC-3-09]
Percent TNF-α Inhibition ([1]; 100 ng/ml): 0%
Percent TNF-α Inhibition ([1]; 1 ug/ml): 0%
Percent TNF-α Inhibition ([1]; 10 ug/ml): 10%
Cell Viability (THP-1 cells; 100 ng/ml): 100
Cell Viability (THP-1 cells; 1 ug/ml): 100
Cell Viability (THP-1 cells; 10 ug/ml): 100

C=CC1(C)CCC=C2C1CCC1C(C)(CC=O)CCCC21C (centres unmarked) [CC-3-14]
Percent TNF-α Inhibition ([1]; 100 ng/ml): 25%
Percent TNF-α Inhibition ([1]; 1 ug/ml): 30%
Cell Viability (THP-1 cells; 100 ng/ml): 100
Cell Viability (THP-1 cells; 1 ug/ml): 100

C=CC1(C)CCC=C2C1CCC1C(C)(COC(=O)CCC(=O)O)CCCC21C (centres unmarked) [CC-3-17]
Percent TNF-α Inhibition ([1]; 100 ng/ml): 10%
Percent TNF-α Inhibition ([1]; 1 ug/ml): 20%
Percent TNF-α Inhibition ([1]; 10 ug/ml): 25%
Cell Viability (THP-1 cells; 100 ng/ml): 90*
Cell Viability (THP-1 cells; 1 ug/ml): 85*
Cell Viability (THP-1 cells; 10 ug/ml): 75**

CC1(C)CC[C@]2(C(=O)O)CC[C@]3(C)[C@H](C(=O)C=C4[C@@]5(C)C=C(C#N)C(=O)C(C)(C)[C@@H]5CC[C@]43C)[C@@H]2C1 [Compound 54, 2-cyano-3,12-dioxoolean-1,9-dien-28-oic acid]
fold more active than any other known triterpenoid in suppressing iNOS [2]: 500 fold
fold more active than any other known triterpenoid in suppressing COX-2 (COX-2 (cyclooxygenase-2)): 500 fold

C=C[C@@]1(C)CC=C2[C@@H](CC[C@@H]3[C@](C)(C(=O)O)CCC[C@@]23C)C1 [Formula (I), acanthoic acid]
production of IL-6 (IL-6): not affected
toxicity (mice): minimal toxicity
toxicity (mice; listed as 1): very little toxicity
LD (mice; orally): > 300 mg/100 g of body weight
production of IFN-γ (IFN-γ (interferon-gamma)): not affected
minimum lethal dose (MLD) (rat; rat, in vivo): 1000 mg/kg
toxicity (rat; rats): minimal toxicity
inhibition of the IL-1 production (IL-1 production): approximately 90%
inhibition of IL-6 synthesis (IL-6 synthesis): neither analog TTL1 nor TTL3 significantly inhibited IL-6 synthesis
cirrotic liver cells (histologic analysis) (cirrhosis): remarkable recovery of the cirrotic liver cells
fibrotic granulomas (histologic analysis) (silicosis): substantial reduction of fibrotic granulomas
inhibition of the TNF-α production (TNF-α production): approximately 90%

C=CC1(C)CCC=C2C1CCC1C(C)(COC(C)=O)CCCC21C (centres unmarked) [LT-1-46]
Percent TNF-α Inhibition ([1]; 100 ng/ml): 0%
Percent TNF-α Inhibition ([1]; 1 ug/ml): 0%
Percent TNF-α Inhibition ([1]; 10 ug/ml): 20%
Cell Viability (THP-1 cells; 100 ng/ml): 100
Cell Viability (THP-1 cells; 1 ug/ml): 90*
Cell Viability (THP-1 cells; 10 ug/ml): 90*

C=CC1(C)CCC=C2C1CCC1C(C)(C(=O)NCCN)CCCC21C (centres unmarked) [LT-1-74]
Percent TNF-α Inhibition ([1]; 100 ng/ml): 25%
Percent TNF-α Inhibition ([1]; 1 ug/ml): 30%
Cell Viability (THP-1 cells; 100 ng/ml): 100
Cell Viability (THP-1 cells; 1 ug/ml): 100

C=CC1(C)CCC=C2C1CCC1C(C)(C(=O)N(CCO)CCO)CCCC21C (centres unmarked) [LT-1-78]
Percent TNF-α Inhibition ([1]; 100 ng/ml): 0%
Percent TNF-α Inhibition ([1]; 1 ug/ml): 0%
Percent TNF-α Inhibition ([1]; 10 ug/ml): 20%
Cell Viability (THP-1 cells; 100 ng/ml): 100
Cell Viability (THP-1 cells; 1 ug/ml): 100
Cell Viability (THP-1 cells; 10 ug/ml): 100

C=CC1(C)CCC=C2C1CCC1C(C)(C(=O)N3CCOCC3)CCCC21C (centres unmarked) [LT-1-85]
Percent TNF-α Inhibition ([1]; 100 ng/ml): 10%
Percent TNF-α Inhibition ([1]; 1 ug/ml): 45%
Percent TNF-α Inhibition ([1]; 10 ug/ml): 55%
Cell Viability (THP-1 cells; 100 ng/ml): 100
Cell Viability (THP-1 cells; 1 ug/ml): 100
Cell Viability (THP-1 cells; 10 ug/ml): 80*

C=C[C@@]1(C)CCC=C2[C@H]1CC[C@@H]1[C@](C)(C(=O)O)CCC[C@@]21C [TTL1]
inhibition at 0.1 µg/mL ([1]; Homo sapiens, 100 ng/ml, read-out: Percent TNF-α Inhibition): 10%
inhibition at 1 µg/mL ([1]; Homo sapiens, 1 ug/ml, read-out: Percent TNF-α Inhibition): 30%
inhibition at 10 µg/mL ([1]; Homo sapiens, 10 ug/ml, read-out: Percent TNF-α Inhibition): 50%
Cell Viability (THP-1 cells; 100 ng/ml): 100
Cell Viability (THP-1 cells; 1 ug/ml): 100
inhibition of IL-6 synthesis (IL-6 synthesis): neither analog TTL1 nor TTL3 significantly inhibited IL-6 synthesis

C=CC1(C)CCC=C2C1CCC1C(C)(C(=O)OC)CCCC21C (centres unmarked) [TTL3]
TNF-α (TNF-α synthesis [3]; LPS (1 μg/ml) + TTL3 1.0 μg/ml): 13 ng/mL
TNF-α (TNF-α synthesis [3]; LPS (1 μg/ml) + TTL3 1 × 10^2 μg/ml): 4 ng/mL
TNF-α (TNF-α synthesis [3]; LPS (1 μg/ml) + TTL3 1 × 10^−4 μg/ml): 15 ng/mL
TNF-α (TNF-α synthesis [3]; LPS (1 μg/ml) + TTL3 1 × 10^−5 μg/ml): 10 ng/mL
TNF-α (TNF-α synthesis [3]; LPS (1 μg/ml) + TTL3 1 × 10^−6 μg/ml): 18 ng/mL
TNF-α (TNF-α synthesis [3]; LPS (1 μg/ml) + TTL3 1 × 10^−7 μg/ml): 41 ng/mL
times greater activity than TTL1 (inhibiting TNF-α synthesis) (TNF-α synthesis [3]; stimulus not given): approximately 100 times
Percent TNF-α Inhibition ([1]; 100 ng/ml): 30%
Percent TNF-α Inhibition ([1]; 1 ug/ml): 55%
Percent TNF-α Inhibition ([1]; 10 ug/ml): 70%
TNF-α (TNF-α synthesis [4]; Table 5, TTL3 0.001 μg/ml): 80 ng/mL
TNF-α (TNF-α synthesis [4]; Table 5, TTL3 0.01 μg/ml): 75 ng/mL
TNF-α (TNF-α synthesis [4]; Table 5, TTL3 0.1 μg/ml): 85 ng/mL
TNF-α (TNF-α synthesis [4]; Table 5, TTL3 1 μg/ml): 60 ng/mL
TNF-α (TNF-α synthesis [4]; Table 5, TTL3 10 μg/ml): 80 ng/mL
Cell Viability (THP-1 cells; 100 ng/ml): 100
Cell Viability (THP-1 cells; 1 ug/ml): 100
Cell Viability (THP-1 cells; 10 ug/ml): 100
Mortality 24 hours (LPS/D-Gal administration; LPS/D-Gal alone 10/10, + DMSO 8/10): 2/10
Mortality 48 hours (LPS/D-Gal administration; LPS/D-Gal alone 10/10, + DMSO 9/10): 2/10
inhibition of IL-6 synthesis (IL-6 synthesis): neither analog TTL1 nor TTL3 significantly inhibited IL-6 synthesis
IL-1α (IL-1 synthesis; TTL3 0.001 μg/ml): 200 pg/mL
IL-1α (IL-1 synthesis; TTL3 0.01 μg/ml): 220 pg/mL
IL-1α (IL-1 synthesis; TTL3 0.1 μg/ml): 190 pg/mL
IL-1α (IL-1 synthesis; TTL3 1 μg/ml): 180 pg/mL
IL-1α (IL-1 synthesis; TTL3 10 μg/ml): 170 pg/mL
times greater activity than TTL1 (inhibiting IL-1 synthesis) (IL-1 synthesis; stimulus not given): approximately 100 times

C=CC1(C)CCC=C2C1CCC1C(C)(C(=O)[O-])CCCC21C.[K+] (centres unmarked) [TTL-1K]
Percent TNF-α Inhibition ([1]; 100 ng/ml): 10%
Percent TNF-α Inhibition ([1]; 1 ug/ml): 50%

C=CC1(C)CCC=C2C1CCC1C(C)(C(=O)[O-])CCCC21C.[Na+] (centres unmarked) [TTL-1Na]
Percent TNF-α Inhibition ([1]; 1 ug/ml): 40%
Percent TNF-α Inhibition ([1]; 10 ug/ml): 50%
Cell Viability (THP-1 cells; 1 ug/ml): 90*
Cell Viability (THP-1 cells; 10 ug/ml): 80*
